Data as given in US4129737A, “Process for the preparation of an 8-alkyl-5-oxo-5,8-dihydro-pyrido(2,3-d)pyrimidine-6-carboxylic acid” (priority 1972, dated 1978).
Converted amounts (≈) assume the structure as drawn. Where two headings read alike, the source gives them in different places.

Key:
Esch. coli. 54-127 OMS = test: Average MIC, solid medium (nutrient agar) dilution method; conditions: Escherichia coli, 18 h, read-out: minimum inhibitory concentration, average
S. oranienburg 10-66 = test: as above; conditions: Salmonella enterica, 1066, 18 h, read-out: minimum inhibitory concentration, average
Staphylococcus SIM = test: as above; conditions: 18 h, read-out: minimum inhibitory concentration, average
Sh. sonnei I.P.S. = test: as above; assay type: cell-based; conditions: Shigella sonnei, 18 h, average of five determinations, read-out: minimum inhibitory concentration, average
Staphylococcus 9144 = test: as above; conditions: Staphylococcus, 9144, 18 h, read-out: minimum inhibitory concentration, average
Esch. coli. LRB 67 = test: as above; conditions: Escherichia coli, 18 h, read-out: minimum inhibitory concentration, average
Esch 111 B4 = test: as above; assay type: cell-based; conditions: 18 h, average of five determinations, read-out: minimum inhibitory concentration, average
Salm. typhi 0901 = test: as above; assay type: cell-based; conditions: Salmonella enterica, 18 h, read-out: minimum inhibitory concentration, average
Providencia 0223 = test: as above; conditions: Providencia, 0223, 18 h, read-out: minimum inhibitory concentration, average
Ps. aeruginosa 72-345 = test: as above; conditions: Pseudomonas aeruginosa, 72345, 18 h, read-out: minimum inhibitory concentration, average
Arizona 6211 = test: as above; conditions: 18 h, read-out: minimum inhibitory concentration, average
Ps. aeruginosa A22 = test: as above; conditions: Pseudomonas aeruginosa, A22, 18 h, read-out: minimum inhibitory concentration, average
Esch. coli. LRB 45 = test: as above; conditions: Escherichia coli, 18 h, read-out: minimum inhibitory concentration, average
Pr. morganii A 236 = test: as above; conditions: Morganella morganii, A236, 18 h, read-out: minimum inhibitory concentration, average
Esch. coli. Cho = test: as above; conditions: Escherichia coli, 18 h, read-out: minimum inhibitory concentration, average
S. enteritidis DANYZ = test: as above; conditions: Salmonella enterica, 18 h, read-out: minimum inhibitory concentration, average
Staphylococcus 209P = test: as above; conditions: 18 h, read-out: minimum inhibitory concentration, average
Pr. vulgaris 12-53 = test: as above; conditions: Proteus vulgaris, 1253, 18 h, read-out: minimum inhibitory concentration, average
Streptococcus DM19 = test: as above; conditions: DM19, 18 h, read-out: minimum inhibitory concentration, average
Streptococcus A561 = test: as above; conditions: A561, 18 h, read-out: minimum inhibitory concentration, average
Bord. bronch. 4617 = test: as above; conditions: 18 h, read-out: minimum inhibitory concentration, average
Esch. coli. 95 I.S.M. = test: as above; conditions: Escherichia coli, 18 h, read-out: minimum inhibitory concentration, average
B. subtilis 6633 = test: as above; conditions: Bacillus subtilis, 6633, 18 h, read-out: minimum inhibitory concentration, average
Pr. mirabilis Nig = test: as above; conditions: Proteus mirabilis, 18 h, read-out: minimum inhibitory concentration, average
Klebs. pneumoniae 10.031 = test: as above; conditions: Klebsiella pneumoniae, 10.031, 18 h, read-out: minimum inhibitory concentration, average
Sh. sonnei = test: Minimum inhibitory concentration by agar dilution, Sh. sonnei; assay type: cell-based; conditions: Shigella sonnei, 37° C., 18 hours, read-out: minimum inhibitory concentration (M.I.C.)
Procedure: (§1) (a) Trypticase soya medium (T.S.A.), which is very suitable for culturing the majority of microorganisms; it has the following composition:
(§2) (b) Ordinarily nutrient agar (N.A.), which is less rich in nutrients, corresponds to the following formulation: […]
(§3) Table I gives the minimum inhibitory concentrations (expressed in μg/cm^3) for the various microorganisms tested on each medium.
(§4) The products were tested on three Gram positive microorganisms (1 to 3) […] and on 10 Gram negative microorganisms (4 to 13).
(§5) Table (II) gives the minimum inhibitory concentrations of the compounds of Examples XII to XVI, determined on the agar medium, N.A., and expressed in μg/cm^3.

Pr. morganii = test: Minimum inhibitory concentration by agar dilution, Pr. morganii; assay type: cell-based; conditions: Morganella morganii, 37° C., 18 hours, read-out: minimum inhibitory concentration (M.I.C.)
Procedure: as §1, §2, §3, §4, §5

Klebs. pneumoniae = test: Minimum inhibitory concentration by agar dilution, Klebs. pneumoniae; assay type: cell-based; conditions: Klebsiella pneumoniae, 37° C., 18 hours, read-out: minimum inhibitory concentration (M.I.C.)
Procedure: as §1, §2, §3, §4, §5

Staphylococcus 209 P = test: Minimum inhibitory concentration by agar dilution, Staphylococcus 209 P; assay type: cell-based; conditions: Staphylococcus, 37° C., 18 hours, read-out: minimum inhibitory concentration (M.I.C.)
Procedure: as §1, §2, §3, §4, §5

Pr. mirabilis = test: Minimum inhibitory concentration by agar dilution, Pr. mirabilis; assay type: cell-based; conditions: Proteus mirabilis
Procedure: as §1, §2, §3, §4, §5

Pr. vulgaris = test: Minimum inhibitory concentration by agar dilution, Pr. vulgaris; assay type: cell-based; conditions: Proteus vulgaris
Procedure: as §1, §2, §3, §4, §5

Bord. bronchiseptica = test: Minimum inhibitory concentration by agar dilution, Bord. bronchiseptica; assay type: cell-based; conditions: Bordetella bronchiseptica, 37° C., 18 hours, read-out: minimum inhibitory concentration (M.I.C.)
Procedure: as §1, §2, §3, §4, §5

Streptococcus = test: Minimum inhibitory concentration by agar dilution, Streptococcus Group A; assay type: cell-based; conditions: 18 h
Procedure: as §1, §2, §3, §4, §5

Salm. typhi = test: Minimum inhibitory concentration by agar dilution, Salm. typhi; assay type: cell-based; conditions: Salmonella enterica, 18 h
Procedure: as §1, §2, §3, §4, §5

B. subtilis = test: Minimum inhibitory concentration by agar dilution, B. subtilis; assay type: cell-based; conditions: Bacillus subtilis, 37° C., 18 hours, read-out: minimum inhibitory concentration (M.I.C.)
Procedure: as §1, §2, §3, §4, §5

[1] = system: Gram-negative microorganisms; test: In vitro anti-microbial activity on agar media, overall; assay type: cell-based; conditions: in vitro
Procedure: as §4

B. pyocyaneus TUR = test: Minimum inhibitory concentration by agar dilution, B. pyocyaneus TUR; assay type: cell-based; conditions: Pseudomonas aeruginosa, 37° C., 18 hours
Procedure: as §1, §2, §3, §4

Esch. Coli 95 = test: Minimum inhibitory concentration by agar dilution, Esch. Coli 95; assay type: cell-based; conditions: Escherichia coli
Procedure: as §1, §2, §3, §4, §5

B. pyocyaneus A22 = test: Minimum inhibitory concentration by agar dilution, B. pyocyaneus A22; assay type: cell-based; conditions: Pseudomonas aeruginosa, A22, 37° C., 18 hours, read-out: minimum inhibitory concentration (M.I.C.)
Procedure: as §1, §2, §3, §4, §5

[2] = N.A. (nutrient agar, pH 6.8), Table I
[3] = T.S.A. (trypticase soya medium, pH 7.3)
[4] = 18 h, pH 7.3, read-out: minimum inhibitory concentration (M.I.C.)
[5] = N.A. (nutrient agar, pH 6.8), 37° C., 18 hours, Table I, read-out: minimum inhibitory concentration (M.I.C.)
[6] = pH 6.8, read-out: minimum inhibitory concentration (M.I.C.)
[7] = pH 7.3, read-out: minimum inhibitory concentration (M.I.C.)

Compound: CCn1cc(C(=O)O)c(=O)c2ccc(C)nc21 [Nalidixic acid, nalidixic acid, reference compound]
- MIC (Esch. coli. 54-127 OMS): 2.15 µg/mL (≈ 9.26 µM)
- MIC (S. oranienburg 10-66): 100 µg/mL (≈ 431 µM)
- MIC (Staphylococcus SIM): 56.2 µg/mL (≈ 242 µM)
- MIC (Sh. sonnei I.P.S.): 1.58 µg/mL (≈ 6.8 µM)
- MIC (Staphylococcus 9144): 25 µg/mL (≈ 108 µM)
- MIC (Esch. coli. LRB 67): 2.7 µg/mL (≈ 11.6 µM)
- MIC (Esch 111 B4): 2.34 µg/mL (≈ 10.1 µM)
- MIC (Salm. typhi 0901): 2.7 µg/mL (≈ 11.6 µM)
- MIC (Providencia 0223): 100 µg/mL (≈ 431 µM)
- MIC (Ps. aeruginosa 72-345): 60 µg/mL (≈ 258 µM)
- MIC (Arizona 6211): 3.12 µg/mL (≈ 13.4 µM)
- MIC (Ps. aeruginosa A22): 60 µg/mL (≈ 258 µM)
- MIC (Esch. coli. LRB 45): 3.1 µg/mL (≈ 13.3 µM)
- MIC (Pr. morganii A 236): 0.36 µg/mL (≈ 1.55 µM)
- MIC (Esch. coli. Cho): 4.04 µg/mL (≈ 17.4 µM)
- MIC (S. enteritidis DANYZ): 2.75 µg/mL (≈ 11.8 µM)
- MIC (Staphylococcus 209P): 16.2 µg/mL (≈ 69.9 µM)
- MIC (Pr. vulgaris 12-53): 0.88 µg/mL (≈ 3.79 µM)
- MIC (Streptococcus DM19): 100 µg/mL (≈ 431 µM)
- MIC (Streptococcus A561): 18.7 µg/mL (≈ 80.7 µM)
- MIC (Bord. bronch. 4617): 25 µg/mL (≈ 108 µM)
- MIC (Esch. coli. 95 I.S.M.): 21.9 µg/mL (≈ 94.2 µM)
- MIC (B. subtilis 6633): 72 µg/mL (≈ 310 µM)
- MIC (Pr. mirabilis Nig): 3.42 µg/mL (≈ 14.7 µM)
- MIC (Klebs. pneumoniae 10.031): 1.4 µg/mL (≈ 6.03 µM)

Compound: CCn1cc(C(=O)O)c(=O)c2cnc(N3CCCC3)nc21 [Example III, 2-Pyrrolidino-5-oxo-8-ethyl-5,8-dihydro-pyrido(2,3-d)-pyrimidine-6-carboxylic acid]
- MIC (Esch. coli. 54-127 OMS): 15.6 µg/mL (≈ 54.2 µM)
- MIC (S. oranienburg 10-66): 100 µg/mL (≈ 347 µM)
- MIC (Staphylococcus SIM): 15 µg/mL (≈ 52 µM)
- MIC (Sh. sonnei I.P.S.): 10.6 µg/mL (≈ 36.8 µM)
- MIC (Staphylococcus 9144): 4.04 µg/mL (≈ 14 µM)
- MIC (Esch. coli. LRB 67): 12.5 µg/mL (≈ 43.4 µM)
- MIC (Esch 111 B4): 15.6 µg/mL (≈ 54.2 µM)
- MIC (Salm. typhi 0901): 23.7 µg/mL (≈ 82.3 µM)
- MIC (Providencia 0223): 100 µg/mL (≈ 347 µM)
- MIC (Ps. aeruginosa 72-345): 75 µg/mL (≈ 260 µM)
- MIC (Arizona 6211): 27.5 µg/mL (≈ 95.4 µM)
- MIC (Ps. aeruginosa A22): 100 µg/mL (≈ 347 µM)
- MIC (Esch. coli. LRB 45): 15.6 µg/mL (≈ 54.2 µM)
- MIC (Pr. morganii A 236): 0.56 µg/mL (≈ 1.94 µM)
- MIC (Esch. coli. Cho): 32.5 µg/mL (≈ 113 µM)
- MIC (S. enteritidis DANYZ): 21.9 µg/mL (≈ 76 µM)
- MIC (Staphylococcus 209P): 3.42 µg/mL (≈ 11.9 µM)
- MIC (Pr. vulgaris 12-53): 5.6 µg/mL (≈ 19.4 µM)
- MIC (Streptococcus DM19): 100 µg/mL (≈ 347 µM)
- MIC (Streptococcus A561): 2.82 µg/mL (≈ 9.78 µM)
- MIC (Bord. bronch. 4617): 80 µg/mL (≈ 277 µM)
- MIC (Esch. coli. 95 I.S.M.): 32.5 µg/mL (≈ 113 µM)
- MIC (B. subtilis 6633): 1 µg/mL (≈ 3.47 µM)
- MIC (Pr. mirabilis Nig): 30 µg/mL (≈ 104 µM)
- MIC (Klebs. pneumoniae 10.031): 1.2 µg/mL (≈ 4.16 µM)

Compound: CCn1cc(C(=O)O)c(=O)c2cnc(N3CCC(O)CC3)nc21 [IV, 2-(4'-Hydroxy-piperidino)-5-oxo-8-ethyl-5,8-dihydropyrido(2,3-d)pyrimidine-6-carboxylic acid]
- MIC (Sh. sonnei; [2]): 3.1 µg/mL (≈ 9.74 µM)
- MIC (Sh. sonnei; [3]): 12.5 µg/mL (≈ 39.3 µM)
- MIC (Pr. morganii; [2]): 0.4 µg/mL (≈ 1.26 µM)
- MIC (Pr. morganii; [3]): 0.8 µg/mL (≈ 2.51 µM)
- MIC (Klebs. pneumoniae; [2]): 0.4 µg/mL (≈ 1.26 µM)
- MIC (Klebs. pneumoniae; [3]): 0.8 µg/mL (≈ 2.51 µM)
- MIC (Staphylococcus 209 P; [2]): 1.6 µg/mL (≈ 5.03 µM)
- MIC (Staphylococcus 209 P; [3]): 50 µg/mL (≈ 157 µM)
- MIC (Pr. mirabilis; 18 h, pH 6.8, read-out: minimum inhibitory concentration (M.I.C.)): 12.5 µg/mL (≈ 39.3 µM)
- MIC (Pr. mirabilis; T.S.A. (trypticase soya medium, pH 7.3), 37° C., 18 hours, read-out: minimum inhibitory concentration (M.I.C.)): 25 µg/mL (≈ 78.5 µM)
- MIC (Pr. vulgaris; [4]): 12.5 µg/mL (≈ 39.3 µM)
- MIC (Pr. vulgaris; [5]): 3.1 µg/mL (≈ 9.74 µM)
- MIC (Bord. bronchiseptica; [2]): 100 µg/mL (≈ 314 µM)
- MIC (Bord. bronchiseptica; [3]): > 100 µg/mL
- MIC (Streptococcus; [6]): 12.5 µg/mL (≈ 39.3 µM)
- MIC (Streptococcus; [7]): 12.5 µg/mL (≈ 39.3 µM)
- MIC (Salm. typhi; [6]): 6.2 µg/mL (≈ 19.5 µM)
- MIC (Salm. typhi; [7]): 12.5 µg/mL (≈ 39.3 µM)
- MIC (B. subtilis; [2]): 0.8 µg/mL (≈ 2.51 µM)
- MIC (B. subtilis; [3]): 3.1 µg/mL (≈ 9.74 µM)
- activity against Gram-negative microorganisms [1]: particularly active against Gram-negative microorganisms
- MIC (B. pyocyaneus TUR; [2]): 100 µg/mL (≈ 314 µM)
- MIC (B. pyocyaneus TUR; T.S.A. (trypticase soya medium, pH 7.3), read-out: minimum inhibitory concentration (M.I.C.)): > 100 µg/mL
- MIC (Esch. Coli 95; [4]): 12.5 µg/mL (≈ 39.3 µM)
- MIC (Esch. Coli 95; [5]): 6.2 µg/mL (≈ 19.5 µM)
- MIC (B. pyocyaneus A22; [2]): 100 µg/mL (≈ 314 µM)
- MIC (B. pyocyaneus A22; [3]): > 100 µg/mL
